assay: Cytotoxicity against mouse P388 cells assessed as reduction in cell viability measured after 72 hrs by XTT assay; format: functional, cell-based; conditions: P388, 72 h

Point of comparison: CC1=C[C@@H](O)[C@H]2[C@](O)(CC[C@]34O[C@]23[C@@H](O)c2cccc(O[C@]35CC[C@]6(O)C[C@@](C)(O)C=C[C@@H]6[C@]3(O)[C@@H](O)c3cccc(O)c3C5=O)c2C4=O)C1, IC50 10.7 µM. Against it:
- C[C@]1(O)C=C[C@H]2[C@](O)(CC[C@]34O[C@]23[C@@H](O)c2cccc(O)c2C4=O)C1 — 5.9-fold lower, 1.8 µM
- C[C@@]1(O)C=C[C@H]2[C@](O)(CC[C@]34O[C@]23[C@@H](O)c2cccc(O)c2C4=O)C1 — within 1.5-fold, 7.6 µM
- CC1=C[C@@H]2O[C@]34CC[C@](O)(C1)[C@H]2[C@]3(O)[C@@H](O)c1cccc(O)c1C4=O — 2.7-fold higher, 28.6 µM
- CC1=C[C@@H](O)[C@@H]2C(=O)[C@@]3(CC[C@]2(O)C1)C(=O)c1c(O)cccc1[C@H]3O — 5-fold higher, 53.3 µM
- CC1=C[C@@H](O)[C@H]2[C@](O)(CC[C@]3(Oc4cccc5c4C(=O)[C@]46CC[C@]7(O)CC(C)=C[C@@H](O)[C@@H]7[C@]4(O6)[C@H]5O)C(=O)c4c(O)cccc4[C@H](O)[C@@]23O)C1 — within 1.5-fold, 9.7 µM
- CC1=CC(=O)C2=C3[C@@H](O)c4cccc(O)c4C(=O)[C@]3(O)CC[C@]2(O)C1 — within 1.5-fold, 12 µM
- Cc1ccc2c(c1)CC[C@]1(S[C@]34CCc5cc(C)ccc5[C@]3(O)[C@@H](O)c3cccc(O)c3C4=O)C(=O)c3c(O)cccc3[C@H](O)[C@@]21O — 1.8-fold lower, 6.1 µM
- CC1=C[C@@H](O)[C@H]2[C@](O)(CC[C@]34O[C@]23[C@@H](O)c2cccc(O)c2C4=O)C1 — 6.3-fold lower, 1.7 µM

From ChEMBL document CHEMBL5120802, “Kumemicinones A-G, Cytotoxic Angucyclinones from a Deep Sea-Derived Actinomycete of the Genus Actinomadura” (J Nat Prod, 2022)
